Earlier results, collected in patent EP1288303A1, “Inducible expression systems employing PPAR transcriptional activators” (Aventis Pharma S.A., priority 2001, dated 2003).

Settings: form not soluble in water; doses between 5 and 50 mg/kg, for example 30 mg/kg

**Q.** For `CN(CCOc1ccc(CC2SC(=O)NC2=O)cc1)c1ccccn1` (stereo not shown) [BRL49653, rosiglitazone], which plasma concentration is on record?
**A.** about 15 µg/ml
